Patent US20260232865A1, “DENDRIMER-BIOADHESIVE POLYMER HYDROGEL NANOGLUE AND USE THEREOF” (The Johns Hopkins University, priority 2016, published 2026)
Read-outs that look alike come from different tables or passages of the source.

Legend:
Format in all cases: in vivo, rat
MCP-1 mRNA = experiment: Cytokine mRNA expression in corneal tissue by RT-PCR: MCP-1
Procedure: (§1) For cytokine expression analysis, the corneas (n=10, for each group) were snap frozen in liquid nitrogen and homogenized carefully into tissue powder using pre-cooled (in liquid nitrogen) porcelain mortar and pestles. The total RNA was purified with TRIzol reagent (Life Technologies, Grand Island, NY) following the manufacturer's instruction. 3 μg of total RNA was reverse-transcribed to cDNA using High-capacity cDNA Reverse Transcription System (Life Technologies) according to the manufacturer's instructions. qRT-PCR was performed with fast SYBR Green Master Mix (Life Technologies) by a StepOnePlus Real-Time PCR System (Life Technologies). Rat GAPDH was used to normalize the expression levels of target gene and calculated by the comparative cycle threshold Ct method (2^−(ΔΔCt)).

corneal alkali burn = settings: for Estimated area of NV / CCT: mean±standard deviation; for Opacity score: median (inter-quartile range); for CCT: rat alkali burn, subconjunctival gel, 1.6 mg of Dex/eye
Procedure: All procedures involving animals conformed with the IACUC research guidelines by the Association for Research in Vision and Ophthalmology Statement for the use of Animals in Ophthalmic and Vision Research and Johns Hopkins University. A total of 57 Lewis rats (7 to 8 weeks of age) were obtained from Harlan Laboratories Inc. (Frederick, MD). All animals weighed between 150 and 200 g, and they were housed at constant temperature (20±1° C.) and humidity (50±5%). They were fed standard rat chow and had access to water ad libitum. All procedures and tests were performed under general anesthesia with intramuscular injection of ketamine 0.9% (Bio-niche Pharma, Lake Forest, IL, USA)/xylazine 0.1% (Phoenix Pharmaceuticals, St. Joseph, MO, USA) and topical proparacaine 0.5% (Sandoz, Holzkirchen, Germany). Corneal alkali burn was generated by applying 0.5N NaOH on cornea. Briefly, sample discs SS-033 0.5 cm in diameter (WESCOR, Logan, Utah, USA) were cut in to 4 quadrants. The quadrant was soaked in 0.5N NaOH for 10 seconds and then placed on central cornea for 15 s. The burn area and the conjunctival sac were immediately irrigated with 30 mL of BSS solution using an eyedrop bottle.
Corneal alkali burn was performed on rats as described in Example 7.
After alkali burn, the animals were randomized for treatment in one of the following three groups: (i) Dendrimer-Dexamethasone conjugates entrapped in injectable, dendrimer-hyaluronic acid photocrosslinked gel with a minimal amount of free dexamethasone (D-Dex group, n=10), (ii) free dexamethasone in injectable, dendrimer-hyaluronic acid photocrosslinked gel (free-dex group, n=10), and (iii) no drug, only injectable, dendrimer-hyaluronic acid photocrosslinked gel, n=10. Both D-Dex and free-Dex groups were treated with equivalent Dex basis present in both D-Dex and free Dex formulations (1.6 mg of Dex/eye). […] The free dexamethasone group received a total of 1.6 mg of free dexamethasone. […] All forms of drugs were incorporated into injectable gel formulations (it is the same gel formulation as of example 4). The gel components are premixed and loaded in to the syringe and crosslinked to form gel using UV exposure. At the time of injection the components are in the form of gel) and injected subconjunctivally using 30-gauge, 0.5 cc insulin syringes.
Animals were assessed at baseline and at the following post-exposure time points: 24 hours, 72 hours, and 7 days. A subset of the animals was also followed up to 14 days.
The central corneal thickness (CCT) and stromal structure analysis were done using anterior chamber optical coherence tomography (OCT) (Bioptigen Envisu R-class OCT, Bioptigen, NC, USA).
Changes in intraocular pressure (IOP) were measured using a handheld tonometer (Icare LAB tonometer, Icare, Finland). The settings R for rat were chosen and three individual measurements of IOP were made for each eye for accuracy.
Corneal opacity was scored by grading the degree of transparency as previously reported by Larkin D F, et al., Clin Exp Immunol., 107:381-391 (1997). The estimated area of neovascularization (NV) was assessed by estimating the radial penetration of the neovascular vessels and their extent in degrees, and by assuming a mean corneal […] of 2.5 mm, so that the maximal area of NV was no more than 2.52π mm^2 (=19.63 mm^2).

IL-6 mRNA = experiment: Cytokine mRNA expression in corneal tissue by RT-PCR: IL-6; settings: POD7, normalized to healthy controls, mean±SEM
Procedure: as §1

`C[C@@H]1C[C@H]2[C@@H]3CCC4=CC(=O)C=C[C@]4(C)[C@@]3(F)[C@@H](O)C[C@]2(C)[C@@]1(O)C(=O)CO` [Free-Dex, Dexamethasone] was tested, and the “MCP-1 mRNA levels significantly lower compared to the positive controls” value (MCP-1 mRNA; POD7, p=0.259) was “not true”, the “MCP-1 mRNA levels” value (MCP-1 mRNA; POD14, corneal tissue, normalized to healthy controls, mean±SEM) was 15.4±3.22 and the “Estimated area of NV” value (corneal alkali burn; Baseline) was 0 ± 0 mm^2. The Opacity score (corneal alkali burn; Baseline, grade 0-4) was 0(0), the CCT (corneal alkali burn; Baseline) was 142.86 ± 8.68 μm and the “Estimated area of NV” value (corneal alkali burn; POD1) was 0 ± 0 mm^2. The Opacity score (corneal alkali burn; POD1, grade 0-4) was 3(3), the CCT (corneal alkali burn; POD1) was 304.95 ± 87.23 μm and the median opacity score (corneal alkali burn; POD3, grade 0-4) was 3.5. For the same compound, the “Estimated area of NV” value (corneal alkali burn; POD3) was 3.32 ± 1.65 mm^2, the Opacity score (corneal alkali burn; POD3, grade 0-4) was 3.5(1) and the CCT (corneal alkali burn; POD3) was 357.71 ± 115.58 μm. For the same compound, the “Estimated area of NV” value (corneal alkali burn; POD7) was 3.8 ± 2.89 mm^2, the Opacity score (corneal alkali burn; POD7, grade 0-4) was 1(1) and the CCT (corneal alkali burn; POD7) was 229.57 ± 91.54 μm. For the same compound, the “mean area occupied by neo-vessels” value (corneal alkali burn; POD7 as printed in text, spread not defined) was 3.32±0.34 mm^2, the “Estimated area of NV” value (corneal alkali burn; POD14) was 43.32 ± 5.46 mm^2 and the Opacity score (corneal alkali burn; POD14, grade 0-4) was 1(2). The CCT (corneal alkali burn; POD14) was 226.57 ± 63.67 μm and the “IL-6 mRNA levels” value (IL-6 mRNA) was 3.0±0.3.
